This data set has as its system CCRIS mutagenicity, Ames/micronucleus/aberration tests. Description: CCRIS mutagenicity studies.
Setting [1] is: Test System: AMES SALMONELLA TYPHIMURIUM, Strain/Indicator: TA98, Metabolic Activation: NONE, Method: STANDARD PLATE.
[2] abbreviates: Test System: AMES SALMONELLA TYPHIMURIUM, Strain/Indicator: TA98, Metabolic Activation: RAT, LIVER, S-9, AROCLOR 1254, Method: STANDARD PLATE.
Where [3] appears, read: Test System: AMES SALMONELLA TYPHIMURIUM, Strain/Indicator: TA100, Metabolic Activation: NONE, Method: STANDARD PLATE.
Where [4] appears, read: Test System: AMES SALMONELLA TYPHIMURIUM, Strain/Indicator: TA100, Metabolic Activation: RAT, LIVER, S-9, AROCLOR 1254, Method: STANDARD PLATE.
The mark [5] stands for this setting: Test System: AMES SALMONELLA TYPHIMURIUM, Strain/Indicator: TA1535, Metabolic Activation: NONE, Method: STANDARD PLATE.
Where [6] appears, read: Test System: AMES SALMONELLA TYPHIMURIUM, Strain/Indicator: TA1535, Metabolic Activation: RAT, LIVER, S-9, AROCLOR 1254, Method: STANDARD PLATE.
Setting [7] is: Test System: AMES SALMONELLA TYPHIMURIUM, Strain/Indicator: TA98, Metabolic Activation: NONE, Method: PREINCUBATION
[8] abbreviates: Test System: AMES SALMONELLA TYPHIMURIUM, Strain/Indicator: TA100, Metabolic Activation: NONE, Method: PREINCUBATION

Calls of active or inactive are those of the source. No rule for the calls is given here.

In the case of `CC1=CC=C(C(C)C)CC1`, the mutagenic call reads like this: (Test System: AMES SALMONELLA TYPHIMURIUM, Strain/Indicator: TA97A, Metabolic Activation: NONE, Method: STANDARD PLATE) “inactive; negative”; (Test System: AMES SALMONELLA TYPHIMURIUM, Strain/Indicator: TA97A, Metabolic Activation: RAT, LIVER, S-9, AROCLOR 1254, Method: STANDARD PLATE) “inactive; negative”; under setting [1], “inactive; negative”; under setting [2], “inactive; negative”; under setting [3], “inactive; negative”; under setting [4], “inactive; negative”. Also, the mutagenic call reads like this: under setting [5], “inactive; negative”; under setting [6], “inactive; negative”.
As to `COc1ccc(/C=C/c2ccc([N+](=O)[O-])cc2)cc1`, the mutagenic call by setting is: (Test System: AMES SALMONELLA TYPHIMURIUM, Strain/Indicator: TA98(NR), Metabolic Activation: NONE, Method: STANDARD PLATE) “inactive; negative”; (Test System: AMES SALMONELLA TYPHIMURIUM, Strain/Indicator: TA98 (NR), Metabolic Activation: S-9, Method: STANDARD PLATE) “active; positive”; under setting [1], “active; positive”; (Test System: AMES SALMONELLA TYPHIMURIUM, Strain/Indicator: TA98, Metabolic Activation: S-9, Method: STANDARD PLATE) “active; positive”; (Test System: AMES SALMONELLA TYPHIMURIUM, Strain/Indicator: TA100 (NR), Metabolic Activation: NONE, Method: STANDARD PLATE) “inactive; negative”; (Test System: AMES SALMONELLA TYPHIMURIUM, Strain/Indicator: TA100 (NR), Metabolic Activation: S-9, Method: STANDARD PLATE) “inactive; negative”. Besides, the mutagenic call under setting [3] was “active; positive” and the mutagenic call (Test System: AMES SALMONELLA TYPHIMURIUM, Strain/Indicator: TA100, Metabolic Activation: S-9, Method: STANDARD PLATE) is “active; positive”.
Turning to `C[C@]12CC[C@@H]3c4ccc(O)cc4CC[C@H]3[C@@]13CC[C@]2(O)[C@H](O)C3`, the mutagenic call was “inactive; negative” (End Point: IN VITRO CHROMOSOMAL ABERRATIONS, Test System: HUMAN PERIPHERAL LYMPHOCYTES, Metabolic Activation: NONE); “inactive; negative” (End Point: IN VITRO CHROMOSOMAL ABERRATIONS, Test System: HUMAN PERIPHERAL LYMPHOCYTES, Metabolic Activation: RAT, LIVER, S-9, AROCLOR 1254); “inactive; negative” under setting [7]; “inactive; negative” under setting [1]; “inactive; negative” (Test System: AMES SALMONELLA TYPHIMURIUM, Strain/Indicator: TA98, Metabolic Activation: RAT, LIVER, S-9, AROCLOR 1254, Method: PREINCUBATION); “inactive; negative” under setting [2]. Besides, the mutagenic call under setting [8] was “inactive; negative”; the mutagenic call under setting [3] is “inactive; negative”; the mutagenic call (Test System: AMES SALMONELLA TYPHIMURIUM, Strain/Indicator: TA100, Metabolic Activation: RAT, LIVER, S-9, AROCLOR 1254, Method: PREINCUBATION) was “inactive; negative”; the mutagenic call under setting [4] was “inactive; negative”; the mutagenic call (Test System: AMES SALMONELLA TYPHIMURIUM, Strain/Indicator: TA1535, Metabolic Activation: NONE, Method: PREINCUBATION) is “inactive; negative”; the mutagenic call under setting [5] is “inactive; negative”. Moreover, the mutagenic call reads like this: (Test System: AMES SALMONELLA TYPHIMURIUM, Strain/Indicator: TA1535, Metabolic Activation: RAT, LIVER, S-9, AROCLOR 1254, Method: PREINCUBATION) “inactive; negative”; under setting [6], “inactive; negative”; (Test System: AMES SALMONELLA TYPHIMURIUM, Strain/Indicator: TA1537, Metabolic Activation: NONE, Method: PREINCUBATION) “inactive; negative”; (Test System: AMES SALMONELLA TYPHIMURIUM, Strain/Indicator: TA1537, Metabolic Activation: NONE, Method: STANDARD PLATE) “inactive; negative”; (Test System: AMES SALMONELLA TYPHIMURIUM, Strain/Indicator: TA1537, Metabolic Activation: RAT, LIVER, S-9, AROCLOR 1254, Method: PREINCUBATION) “inactive; negative”; (Test System: AMES SALMONELLA TYPHIMURIUM, Strain/Indicator: TA1537, Metabolic Activation: RAT, LIVER, S-9, AROCLOR 1254, Method: STANDARD PLATE) “inactive; negative”. Further, the mutagenic call is “inactive; negative” (Test System: AMES SALMONELLA TYPHIMURIUM, Strain/Indicator: TA1538, Metabolic Activation: NONE, Method: PREINCUBATION); “inactive; negative” (Test System: AMES SALMONELLA TYPHIMURIUM, Strain/Indicator: TA1538, Metabolic Activation: NONE, Method: STANDARD PLATE); “inactive; negative” (Test System: AMES SALMONELLA TYPHIMURIUM, Strain/Indicator: TA1538, Metabolic Activation: RAT, LIVER, S-9, AROCLOR 1254, Method: PREINCUBATION); “inactive; negative” (Test System: AMES SALMONELLA TYPHIMURIUM, Strain/Indicator: TA1538, Metabolic Activation: RAT, LIVER, S-9, AROCLOR 1254, Method: STANDARD PLATE); “inactive; negative” (Test System: CHINESE HAMSTER V-79, Strain/Indicator: V-79 (HGPRT)/6-THIOGUANINE, Metabolic Activation: NONE); “inactive; negative” (Test System: CHINESE HAMSTER V-79, Strain/Indicator: V-79 (HGPRT)/6-THIOGUANINE, Metabolic Activation: RAT, LIVER, S-9, AROCLOR 1254).
Regarding `Nc1ccc(Oc2ccc(N)c(Cl)c2)cc1Cl`, the mutagenic call is “inactive; negative” under setting [7]; “active; positive” (Test System: AMES SALMONELLA TYPHIMURIUM, Strain/Indicator: TA98, Metabolic Activation: RAT, LIVER, S-9, PCB, Method: PREINCUBATION); “inactive; negative” under setting [8]; “active; positive” (Test System: AMES SALMONELLA TYPHIMURIUM, Strain/Indicator: TA100, Metabolic Activation: RAT, LIVER, S-9, PCB, Method: PREINCUBATION).
Consider `N.N.[Br-].[Br-].[Pt+2]`, for which the mutagenic call was “active; positive” under setting [7] and “active; positive” under setting [8].
Consider `Nc1ccc2c(ccc3c4ccccc4ccc23)c1`, for which the mutagenic call was “active; positive” (Test System: AMES SALMONELLA TYPHIMURIUM, Strain/Indicator: TA98, Metabolic Activation: RAT LIVER S-9, AROCLOR 1254 (10%), Method: STANDARD PLATE); “active; positive” (Test System: AMES SALMONELLA TYPHIMURIUM, Strain/Indicator: TA98, Metabolic Activation: RAT, LIVER, CYTOSOL, AROCLOR 1254, Method: STANDARD PLATE); “active; positive” (Test System: AMES SALMONELLA TYPHIMURIUM, Strain/Indicator: TA98, Metabolic Activation: RAT, LIVER, MICROSOMES, AROCLOR 1254, Method: STANDARD PLATE).
